These results are taken from PubChem BioAssay AID1996.

In brackets after ≈: the same amount, converted by molar mass.

The conditions of the data set: buffer; pH 7.4; 200.0 µM.
On to `O=C(c1c[nH]c2ccccc12)N1CCN(Cc2ccccc2)CC1`, for which the kinetic solubility – broadly, solubility judged after dilution from a stock solution rather than from solid – is over 47.9 µg/mL. As for `Cc1cc(C)cc(NC(=O)C(=S)NCc2ccccc2)c1`, the figure is under 0.3 µg/mL; as for `O=C(COc1ccc(Cl)cc1)Nc1ncc([N+](=O)[O-])s1`, 3.2 µg/mL (≈ 10.2 µM).

Consider `O=C(/C=C/c1ccco1)NC(=S)Nc1cccc(C(=O)O)c1`, for which the solubility (kinetic) was over 47.4 µg/mL.

In turn, `O=[N+]([O-])c1cccc2c3c([nH]c12)CCCC3` gave a kinetic solubility of under 0.2 µg/mL. The figure for `CO/N=C/c1c(-c2ccc(Cl)cc2)nc2cc(C)ccn12` is 0.3 µg/mL (≈ 1 µM). As for `Cl.Nc1ccc(Cc2ccccn2)cc1`, the figure is over 38.6 µg/mL. The figure for `COc1ccccc1OCCn1ccnc1` is over 32.7 µg/mL; for `Cc1[nH]c(=O)c(C#N)c(C)c1CCC(=O)NCc1ccc(Cl)cc1` it is over 51.6 µg/mL; for `COC(=O)C(N)Cc1ccc(O)c(O)c1.Cl` (configuration not stated) it is 24.4 µg/mL. `O=C1NC2(CCCCC2)C(=O)N1c1cccc(Cl)c1` yielded a solubility (kinetic) of 11.1 µg/mL (≈ 39.8 µM). As for `Cc1c(CCOC(=O)c2ccc(Cl)cc2Cl)sc[n+]1CC(=O)c1ccccc1.[Br-]`, the figure is over 77.3 µg/mL; as for `CC(=O)c1cccc(NC(=O)c2cc(-c3cccs3)on2)c1`, under 0.3 µg/mL. As for `O=c1[nH]c(-c2ccccc2)nc(-c2ccccc2)c1Cl`, the figure is 2.4 µg/mL (≈ 8.49 µM). In turn, `COC(=O)c1ccc(C(=O)OC)c(NC(=O)C2CCCO2)c1` (configuration not stated) returned a solubility (kinetic) of 45.3 µg/mL (≈ 147 µM). As for `O=[N+]([O-])c1cc(C(F)(F)F)ccc1NCC1CCCO1` (configuration not stated), the figure is 0.6 µg/mL (≈ 2.07 µM); as for `Cc1ccc(C)c(-c2csc(NC(=O)c3c(C)noc3C)n2)c1`, 2.1 µg/mL (≈ 6.41 µM). As for `CC(=O)Nc1ccc(NC(=O)COC(=O)C2CCCCC2)cc1`, the figure is over 47.8 µg/mL; as for `CC(C)(C)c1ccc(COn2ccnc2)cc1`, 27.1 µg/mL (≈ 118 µM); as for `O=C(CN1CCCC1)OCCCC1CCCCC1`, 17.9 µg/mL (≈ 70.6 µM). As for `O=[N+]([O-])c1ccccc1S(=O)(=O)NC1CC2CCC1C2` (configuration not stated), the figure is over 44.5 µg/mL; as for `O=S(=O)(NCCn1cccc1)c1ccc2ccccc2c1`, 2.1 µg/mL (≈ 6.99 µM). Compound `C/C=C/C=C/C(=O)OC(C)C(=O)Nc1cc([N+](=O)[O-])ccc1OC` (configuration not stated) came in with a solubility (kinetic) of 18 µg/mL (≈ 53.8 µM). For the compound `COc1ccc(Br)cc1/C=C(\C(=O)O)c1ccc(S(=O)(=O)N2CCCC2)s1`, the kinetic solubility is over 70.9 µg/mL. As to `CSc1ncccc1C(=O)NC1CCN(Cc2ccccc2)CC1`, the solubility (kinetic) was 48.1 µg/mL (≈ 141 µM). In turn, `Cc1ccc(C(=O)NCC(=O)Nc2ccncc2)cc1` registered a kinetic solubility of over 40.4 µg/mL.

In turn, `COc1cc2c(C(=O)O)c(C)n(C)c2cc1Br` showed a kinetic solubility of over 44.7 µg/mL. The figure for `CC(=O)Nc1ccc(N2Cc3ccccc3C2)cc1` is 18.7 µg/mL (≈ 74.1 µM). The figure for `C=CCOc1nc2sc(C)c(C)c2c(=O)n1-c1ccccc1` is 46.1 µg/mL (≈ 148 µM). As for `CCN(Cc1ccncc1)C(=O)CCc1ccccc1`, the figure is 33.4 µg/mL (≈ 124 µM); as for `Cc1ccc(C(=O)Nc2sc3c(c2C(=O)O)CCC(C)C3)o1` (configuration not stated), over 47.9 µg/mL.

`CCCCCC1CC(CC(=O)NC(=S)Nc2ccccc2Cl)C(=O)O1` (configuration not stated) registered a kinetic solubility of 1.4 µg/mL (≈ 3.66 µM). Compound `O=C(c1cc(=O)[nH]c2ccccc12)N1CCc2ccccc2C1` showed a solubility (kinetic) of 42.9 µg/mL (≈ 141 µM). This solubility kinetic lies about 31-fold higher than the previous one. The figure for `CCOC(=O)c1[nH]cnc1C(=O)Nc1ccccc1` is 11.4 µg/mL (≈ 44 µM); for `c1ccc2c(c1)[nH]c1cnccc12` it is over 25.2 µg/mL. As for `Cn1c(CN2CCCCC2)nc2cc([N+](=O)[O-])ccc21`, the figure is over 41.1 µg/mL; as for `O=S(=O)(Nc1ccc(C(F)(F)F)cc1)c1cccs1`, 45.1 µg/mL (≈ 147 µM). With `Cc1ccc(CN2CCN(Cc3ccc(O)cc3)CC2CCO)o1` (configuration not stated), the solubility (kinetic) was over 49.6 µg/mL. The figure for `O=C(c1cc(-c2ccccc2)on1)N1CCCCCC1` is 39.1 µg/mL (≈ 145 µM); for `CC1=N/C(=C/c2cc(Br)cc(Br)c2O)C(=O)O1` it is 2.8 µg/mL (≈ 7.76 µM); for `Cc1ccc(-n2c(=O)[nH]c3c(C(N)=O)nc(C(C)C)nc32)cc1` it is 9.4 µg/mL (≈ 30.2 µM). As for `COc1ccccc1Nc1nc(N)nc(CCl)n1`, the figure is 35.4 µg/mL (≈ 133 µM). The compound `CC(=O)Nc1ccc(S(=O)(=O)c2cc(O)ccc2O)cc1` yielded a kinetic solubility of over 46.1 µg/mL. As for `O=C(CNC(=O)c1ccc(Br)o1)Nc1ccccc1`, the figure is 6.7 µg/mL (≈ 20.7 µM). Regarding `O=C(Nc1ccccc1N1CCOCC1)c1ccc2ccccc2c1`, the kinetic solubility is 0.8 µg/mL (≈ 2.41 µM). With `Cc1cc(C(=O)N2CCN(c3ccc([N+](=O)[O-])cc3)CC2)c(C)o1`, the kinetic solubility was determined as 20.3 µg/mL (≈ 61.6 µM). The compound `COc1ccc(C(=O)NCCCNC(=O)c2cnccn2)cc1` showed a kinetic solubility of 42.8 µg/mL (≈ 136 µM). The compound `Cc1cc(C)c2[nH]c(C(=O)Nc3ccc4c(c3)OCO4)cc2c1` registered a kinetic solubility of 2.2 µg/mL (≈ 7.14 µM). Compared with the last compound, the solubility kinetic is about 19-fold lower. `O=C(CN1C(=O)c2ccccc2S1(=O)=O)NCCc1ccc(F)cc1`: the solubility (kinetic) was over 54.4 µg/mL. The figure for `Clc1cc(Br)ccc1NCc1cccnc1` is 24.7 µg/mL (≈ 83 µM); for `O=C(CCc1nc(-c2ccccc2Cl)no1)NC1CCCC1` it is 23 µg/mL (≈ 71.9 µM).

Regarding `Cc1cc(C)c(S(=O)(=O)c2ccc(C(C)(C)C)cc2)c(Cl)n1`, the kinetic solubility is under 0.7 µg/mL.
